Measured values reported in patent publication EP4745135A1 (Gluetacs Therapeutics (Shanghai) Co., Ltd., priority 2023, dated 2025).

How the values were obtained:
CK1α = target: T1, CK1α (Homo sapiens, UniProt P48729+Q96SW2); test: Western blot, degradation of substrate protein in hPBMCs; type: cell-based
T1 construct: effects of the compounds of the present disclosure on the expression of target proteins in cells; endogenous in cells; host or cells: human PBMCs (Milecell Biotechnologies)

IKZF1 = target: T2, IKZF1 (Homo sapiens, UniProt Q13422+Q96SW2); test: as above; type: cell-based
T2 construct: effects of the compounds of the present disclosure on the expression of target proteins in cells; endogenous in cells; host or cells: human PBMCs (Milecell Biotechnologies)
T2 sequence (Q13422 whole entry): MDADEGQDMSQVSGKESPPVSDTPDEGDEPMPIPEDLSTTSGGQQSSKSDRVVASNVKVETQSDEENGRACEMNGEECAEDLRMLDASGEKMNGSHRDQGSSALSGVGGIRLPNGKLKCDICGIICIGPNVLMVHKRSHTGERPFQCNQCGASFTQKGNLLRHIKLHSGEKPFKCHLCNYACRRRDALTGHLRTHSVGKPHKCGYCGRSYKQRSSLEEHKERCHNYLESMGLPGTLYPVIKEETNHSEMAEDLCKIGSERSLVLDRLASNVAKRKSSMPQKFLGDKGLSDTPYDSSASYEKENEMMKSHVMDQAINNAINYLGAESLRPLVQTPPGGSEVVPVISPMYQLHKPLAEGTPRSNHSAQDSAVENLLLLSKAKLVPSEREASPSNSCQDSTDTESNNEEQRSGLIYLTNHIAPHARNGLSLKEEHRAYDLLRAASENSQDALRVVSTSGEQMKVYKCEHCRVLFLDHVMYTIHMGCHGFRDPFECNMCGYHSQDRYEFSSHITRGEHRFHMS
T2 sequence (Q96SW2 whole entry): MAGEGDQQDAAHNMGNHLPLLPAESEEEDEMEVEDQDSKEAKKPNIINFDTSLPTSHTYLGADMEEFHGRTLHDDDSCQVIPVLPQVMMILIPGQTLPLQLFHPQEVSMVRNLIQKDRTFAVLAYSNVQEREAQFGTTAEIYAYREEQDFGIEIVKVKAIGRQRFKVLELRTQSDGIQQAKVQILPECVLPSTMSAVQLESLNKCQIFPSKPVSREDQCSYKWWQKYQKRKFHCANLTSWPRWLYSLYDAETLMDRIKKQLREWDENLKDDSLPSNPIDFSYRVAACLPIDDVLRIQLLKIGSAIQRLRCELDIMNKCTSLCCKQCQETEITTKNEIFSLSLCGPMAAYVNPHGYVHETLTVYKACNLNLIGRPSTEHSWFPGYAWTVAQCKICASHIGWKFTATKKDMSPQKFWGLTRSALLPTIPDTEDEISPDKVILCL
T2 sequence (Q16531 whole entry partner): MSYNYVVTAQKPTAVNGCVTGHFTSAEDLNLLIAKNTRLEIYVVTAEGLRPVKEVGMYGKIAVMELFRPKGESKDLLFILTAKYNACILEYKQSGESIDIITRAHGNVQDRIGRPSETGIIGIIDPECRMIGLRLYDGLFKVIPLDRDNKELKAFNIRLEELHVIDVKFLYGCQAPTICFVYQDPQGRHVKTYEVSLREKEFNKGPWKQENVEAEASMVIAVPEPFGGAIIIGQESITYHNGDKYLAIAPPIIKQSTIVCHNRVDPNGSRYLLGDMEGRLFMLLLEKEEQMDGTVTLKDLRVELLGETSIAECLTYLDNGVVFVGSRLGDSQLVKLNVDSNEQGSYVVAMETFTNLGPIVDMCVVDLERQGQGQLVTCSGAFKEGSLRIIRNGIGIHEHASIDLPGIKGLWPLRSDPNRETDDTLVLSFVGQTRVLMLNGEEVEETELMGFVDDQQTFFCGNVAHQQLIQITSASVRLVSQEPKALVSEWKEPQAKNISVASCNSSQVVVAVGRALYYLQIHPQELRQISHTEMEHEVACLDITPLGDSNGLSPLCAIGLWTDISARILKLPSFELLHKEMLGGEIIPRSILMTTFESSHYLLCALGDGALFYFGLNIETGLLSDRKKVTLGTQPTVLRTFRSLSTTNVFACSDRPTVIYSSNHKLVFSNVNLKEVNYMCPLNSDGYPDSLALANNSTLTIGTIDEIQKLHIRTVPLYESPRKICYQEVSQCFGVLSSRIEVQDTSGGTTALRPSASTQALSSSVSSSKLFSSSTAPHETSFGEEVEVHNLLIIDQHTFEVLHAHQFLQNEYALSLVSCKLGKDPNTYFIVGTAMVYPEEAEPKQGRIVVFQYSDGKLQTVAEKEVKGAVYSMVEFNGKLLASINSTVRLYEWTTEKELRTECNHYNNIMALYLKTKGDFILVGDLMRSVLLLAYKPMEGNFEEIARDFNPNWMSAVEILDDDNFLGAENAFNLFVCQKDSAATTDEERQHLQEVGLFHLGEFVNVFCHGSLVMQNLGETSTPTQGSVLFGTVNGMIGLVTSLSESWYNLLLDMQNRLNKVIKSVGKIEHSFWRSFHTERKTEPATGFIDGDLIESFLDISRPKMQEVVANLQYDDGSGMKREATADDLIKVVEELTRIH

IKZF2 = target: T3, IKZF2 (Homo sapiens, UniProt Q96SW2+Q9UKS7); test: as above; type: cell-based
T3 construct: effects of the compounds of the present disclosure on the expression of target proteins in cells; endogenous in cells; host or cells: human PBMCs (Milecell Biotechnologies)
T3 sequence (Q9UKS7 whole entry): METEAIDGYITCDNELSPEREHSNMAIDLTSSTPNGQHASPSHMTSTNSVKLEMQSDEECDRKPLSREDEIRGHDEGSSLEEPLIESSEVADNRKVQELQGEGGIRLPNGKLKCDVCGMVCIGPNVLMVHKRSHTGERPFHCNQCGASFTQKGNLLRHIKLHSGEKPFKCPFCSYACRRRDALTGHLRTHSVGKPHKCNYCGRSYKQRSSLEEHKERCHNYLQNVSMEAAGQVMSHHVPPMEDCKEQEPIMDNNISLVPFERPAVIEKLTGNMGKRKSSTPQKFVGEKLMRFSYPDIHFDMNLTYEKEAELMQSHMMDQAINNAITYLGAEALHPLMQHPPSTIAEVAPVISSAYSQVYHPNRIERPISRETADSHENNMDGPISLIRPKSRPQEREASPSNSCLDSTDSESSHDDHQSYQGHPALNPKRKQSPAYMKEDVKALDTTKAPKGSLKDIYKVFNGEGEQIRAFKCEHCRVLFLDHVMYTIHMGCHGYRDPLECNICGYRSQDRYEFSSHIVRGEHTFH
T3 sequence (Q96SW2 whole entry): as the sequence (Q96SW2 whole entry) above
T3 sequence (Q16531 whole entry partner): as the sequence (Q16531 whole entry partner) above

IKZF3 = target: T4, IKZF3 (Homo sapiens, UniProt Q96SW2+Q9UKT9); test: as above; type: cell-based
T4 construct: effects of the compounds of the present disclosure on the expression of target proteins in cells; endogenous in cells; host or cells: human PBMCs (Milecell Biotechnologies)
T4 sequence (Q9UKT9 whole entry): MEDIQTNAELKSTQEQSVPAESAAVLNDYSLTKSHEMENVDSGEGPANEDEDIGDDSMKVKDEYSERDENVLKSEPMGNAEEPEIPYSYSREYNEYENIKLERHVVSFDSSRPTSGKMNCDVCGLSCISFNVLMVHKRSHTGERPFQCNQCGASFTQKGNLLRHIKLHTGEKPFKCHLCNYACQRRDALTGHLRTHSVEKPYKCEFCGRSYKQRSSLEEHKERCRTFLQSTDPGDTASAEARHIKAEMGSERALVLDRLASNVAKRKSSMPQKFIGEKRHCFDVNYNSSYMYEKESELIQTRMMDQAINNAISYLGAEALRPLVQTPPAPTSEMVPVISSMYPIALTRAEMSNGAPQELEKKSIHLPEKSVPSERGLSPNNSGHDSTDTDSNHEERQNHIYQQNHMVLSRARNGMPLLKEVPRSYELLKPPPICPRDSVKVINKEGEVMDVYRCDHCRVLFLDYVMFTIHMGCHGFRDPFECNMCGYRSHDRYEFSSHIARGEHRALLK
T4 sequence (Q96SW2 whole entry): as the sequence (Q96SW2 whole entry) above
T4 sequence (Q16531 whole entry partner): as the sequence (Q16531 whole entry partner) above

WEE1 = target: T5, WEE1 (Homo sapiens, UniProt P30291+Q96SW2); test: as above; type: cell-based
T5 construct: effects of the compounds of the present disclosure on the expression of target proteins in cells; endogenous in cells; host or cells: human PBMCs (Milecell Biotechnologies)
T5 sequence (P30291 whole entry): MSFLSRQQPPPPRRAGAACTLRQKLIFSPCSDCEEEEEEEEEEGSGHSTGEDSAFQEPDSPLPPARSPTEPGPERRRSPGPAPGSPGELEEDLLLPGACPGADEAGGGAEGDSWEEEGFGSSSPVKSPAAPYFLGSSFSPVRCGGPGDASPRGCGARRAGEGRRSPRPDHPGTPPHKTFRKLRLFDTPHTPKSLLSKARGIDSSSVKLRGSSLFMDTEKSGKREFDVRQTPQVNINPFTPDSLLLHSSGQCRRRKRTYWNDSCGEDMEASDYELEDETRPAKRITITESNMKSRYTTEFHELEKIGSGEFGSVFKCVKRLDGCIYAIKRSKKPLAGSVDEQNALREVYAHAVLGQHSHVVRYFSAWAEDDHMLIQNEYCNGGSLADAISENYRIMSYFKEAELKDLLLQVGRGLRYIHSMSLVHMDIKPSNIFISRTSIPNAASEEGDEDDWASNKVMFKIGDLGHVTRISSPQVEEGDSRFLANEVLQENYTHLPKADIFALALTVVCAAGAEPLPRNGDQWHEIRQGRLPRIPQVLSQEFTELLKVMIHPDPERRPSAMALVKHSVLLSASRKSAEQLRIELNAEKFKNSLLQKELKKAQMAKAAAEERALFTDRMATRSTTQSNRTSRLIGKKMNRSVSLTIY
T5 sequence (Q96SW2 whole entry): as the sequence (Q96SW2 whole entry) above
T5 sequence (Q16531 whole entry partner): as the sequence (Q16531 whole entry partner) above

GSPT1 = test: as above; type: cell-based, Human
[1] = target: T6, human Cereblon WT GST-tagged protein (Homo sapiens, UniProt Q96SW2); test: CRBN-binding affinity, HTRF (CEREBLON BINDING kit); details: for inhibition at 0.5 µM: read-out: Inhibition Rate at 0.5 µM (%); for inhibition at 2 µM: read-out: Inhibition Rate at 2 µM (%)
T6 construct: purchased CISBIO 64BDCRBNPEH
T6 sequence (Q96SW2 whole entry): as the sequence (Q96SW2 whole entry) above

[2] = test system: Human multiple myeloma cell (MM.1S); test: Tumor cell proliferation inhibition (CellTiter-Meiluncell luminescent cell viability assay); details: for inhibition at 0.01 µM / inhibition at 0.5 µM: Homo sapiens, MM1.S, 96 h; for inhibition at 0.01 µM: read-out: Inhibition Rate at 10 nM (%); for inhibition at 0.5 µM: read-out: Inhibition Rate at 500 nM (%)
[3] = test system: Human multiple myeloma peripheral blood B lymphocyte cell (RPMI-8226); test: as above; details: RPMI-8226, 96 h; for inhibition at 0.01 µM: read-out: Inhibition Rate at 10 nM (%); for inhibition at 0.5 µM: read-out: Inhibition Rate at 500 nM (%)
Method: (§1) The tumor cells used herein were cultured in a cell culture medium listed in table 2 at 37°C in an incubator with 5% CO2. Prior to experimentation, all cell lines used were correctly identified by STR profiling, and tested negative for mycoplasma contamination using a mycoplasma detection kit through routine screenings.
(§2) The IC50 values of the compounds of the present disclosure (including the compounds in Table 1 and Examples) were determined using the CellTiter-Meiluncell Luminescent Cell Viability Assay Kit from Dalian Meilun Biotech Co., Ltd. The detailed procedure is as follows: Tumor cells were seeded in 96-well cell culture plates at the densities specified in Table 3. On the following day, the test compounds of the present disclosure were subjected to serial dilution. The dilution can be performed according to one of the following two methods: • (1) The first dilution method: The test compounds of the present disclosure (including the compounds in Table 1 and Examples) were subjected to 5-fold serial dilutions starting from a highest concentration of 2000 µM, resulting in a total of 9 concentrations from high to low (2000, 400, 80, 16, 3.2, 0.64, 0.128, 0.0256, 0.00512 µM). Subsequently, 0.5 µL of the test compound dilution was transferred into the 96-well plate containing the cells, with each well containing 100 µL of cell culture medium. […] Into the 96-well plate, the diluted test compounds and corresponding detection reagents were added, resulting in final test compound concentrations of 500 nM and 10 nM, respectively. The experimental procedure is described below using the diluted 2 µM test compound as an example.
(§3) 0.5 µL of the aforementioned diluted compound of the present disclosure (including the compounds in Table 1 and Examples) was added to the seeded cells in 100 µL of medium, yielding a final test compound concentration of 10 nM. After the cells were treated with the compounds of the present disclosure for a specified period, the cell viability assay reagent was added to the culture medium according to the kit's instructions to determine cell viability. […] All controls were treated using the same procedure as the compounds of the present disclosure. The growth inhibition curves for the compounds of the present disclosure were plotted using Prism GraphPad software, and the IC50 values were calculated therefrom.

[4] = test system: Human acute T lymphocytic leukemia cell (Molt4); test: as above; details: MOLT-4, 96 h; for inhibition at 0.01 µM: read-out: Inhibition Rate at 10 nM (%); for inhibition at 0.5 µM: read-out: Inhibition Rate at 500 nM (%)
[5] = test system: Human myeloid monocytic leukemia cell (MV-4-11); test: as above; details: MV4-11, 96 h; for inhibition at 0.01 µM: read-out: Inhibition Rate at 10 nM (%); for inhibition at 0.5 µM: read-out: Inhibition Rate at 500 nM (%)
[6] = test system: Human breast cancer cell (MCF-7); test: as above; details: MCF7, 96 h; for inhibition at 0.01 µM: read-out: Inhibition Rate at 10 nM (%); for inhibition at 0.5 µM: read-out: Inhibition Rate at 500 nM (%)
Method: as §1, §2, §3

[7] = test system: Human T cell acute lymphoblastic leukemia cell (CCRF-CEM); test: as above; details: 96 h; for inhibition at 0.01 µM: read-out: Inhibition Rate at 10 nM (%); for inhibition at 0.5 µM: read-out: Inhibition Rate at 500 nM (%)
[8] = test system: Human acute myeloid leukemia cell line: Kasumi-1; test: as above; details: Kasumi 1, 96 h; for inhibition at 0.01 µM: read-out: Inhibition Rate at 10 nM (%); for inhibition at 0.5 µM: read-out: Inhibition Rate at 500 nM (%)
Method: as §1, §2, §3

[9] = test system: Human T lymphocytic leukemia cell line: Jurkat; test: as above; details: 96 h; for inhibition at 0.01 µM: read-out: Inhibition Rate at 10 nM (%); for inhibition at 0.5 µM: read-out: Inhibition Rate at 500 nM (%)
[10] = 24 hours treatment, compounds at 50 nM and 500 nM (concentration behind the class not stated)
[11] = Western blot, 24 hours of compound treatment, compounds tested at 50 nM and 500 nM (concentration for the table not stated)

T1 sequence (P48729 whole entry): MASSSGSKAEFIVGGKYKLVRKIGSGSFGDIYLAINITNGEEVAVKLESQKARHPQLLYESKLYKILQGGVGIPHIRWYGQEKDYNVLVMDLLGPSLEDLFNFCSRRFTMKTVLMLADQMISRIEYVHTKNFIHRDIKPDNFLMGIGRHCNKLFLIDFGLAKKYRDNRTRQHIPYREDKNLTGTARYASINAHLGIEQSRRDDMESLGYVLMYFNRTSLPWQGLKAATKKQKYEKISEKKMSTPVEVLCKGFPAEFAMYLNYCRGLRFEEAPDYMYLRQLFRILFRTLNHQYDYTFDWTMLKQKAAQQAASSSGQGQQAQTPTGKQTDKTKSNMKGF
T1 sequence (Q96SW2 whole entry): as the sequence (Q96SW2 whole entry) above
T1 sequence (Q16531 whole entry partner): as the sequence (Q16531 whole entry partner) above

Row | Compound | CK1α substrate protein remaining % (CK1α; [10]) | IKZF 1 substrate protein remaining % (IKZF1; [10]) | IKZF2 substrate protein remaining % (IKZF2; [10]) | inhibition at 0.5 µM [1] [%] | inhibition at 2 µM [1] [%] | inhibition at 0.01 µM [2] [%] | inhibition at 0.5 µM [2] [%] | inhibition at 0.01 µM [3] [%] | inhibition at 0.5 µM [3] [%] | inhibition at 0.01 µM [4] [%] | inhibition at 0.5 µM [4] [%] | inhibition at 0.01 µM [5] [%] | inhibition at 0.5 µM [5] [%] | inhibition at 0.5 µM [6] [%] | inhibition at 0.01 µM [7] [%] | inhibition at 0.5 µM [7] [%] | inhibition at 0.01 µM [8] [%] | inhibition at 0.5 µM [8] [%] | inhibition at 0.01 µM [9] [%] | inhibition at 0.5 µM [9] [%] | other results
1 | Cc1cc(C2=CCN(Cc3ccc4c(c3)CN(C3CCC(=O)NC3=O)C4=S)CC2)cs1 (stereo not drawn) [GT-08327, 3-(5-((4-(5-methylthiophen-3-yl)-3,6-dihydropyridin-1(2H)-yl)methyl)-1-thioxoisoindolin-2-yl)piperidine-2,6-dione] | A (0% ≤ substrate protein remaining % ≤ 80%) | A (0% ≤ substrate protein remaining % ≤ 80%) | A (0% ≤ substrate protein remaining % ≤ 80%) | 53 to 60 | 80 to 100 | 40 to 50 | 80 to 100 | 10 to 20 | 80 to 100 | 10 to 20 | 80 to 100 | 40 to 60 | 80 to 100 | 70 to 80 | 30 to 40 | 80 to 100 | 30 to 40 | 80 to 100 | 20 to 30 | 80 to 100 | IKZF3 substrate protein remaining % (IKZF3; [10]): A (0% ≤ substrate protein remaining % ≤ 80%); Wee1 substrate protein remaining % (WEE1; [10]): A (0% ≤ substrate protein remaining % ≤ 80%); GSPT1 substrate protein remaining % (GSPT1; [10]): A (0% ≤ substrate protein remaining % ≤ 80%); inhibition at 0.01 µM [6]: 0 to 5%
2 | O=C1CCC(N2Cc3cc(CN4CCC(N(c5ccccc5)c5ccccn5)CC4)ccc3C2=S)C(=O)N1 (stereo not drawn) [GT-07846, 3-(5-((4-(phenyl(pyridin-2-yl)amino)piperidin-1-yl)methyl)-1-thioxoisoindolin-2-yl)piperidine-2,6-dione] |  |  |  | 53 to 60 | 80 to 100 | 60 to 70 | 80 to 100 | 20 to 30 | 60 to 70 | 70 to 80 | 80 to 100 | 10 to 18 | 80 to 100 | 40 to 50 | 40 to 50 | 80 to 100 | 40 to 50 | 80 to 100 | 30 to 40 | 80 to 100 | CK1α substrate protein remaining % (CK1α; [11]): B (80%< substrate protein remaining %≤ 100%); IKZF 1 substrate protein remaining % (IKZF1; [11]): A (0% ≤ substrate protein remaining % ≤ 80%); IKZF2 substrate protein remaining % (IKZF2; [11]): A (0% ≤ substrate protein remaining % ≤ 80%); IKZF3 substrate protein remaining % (IKZF3; [11]): A (0% ≤ substrate protein remaining % ≤ 80%); Wee1 substrate protein remaining % (WEE1; [11]): A (0% ≤ substrate protein remaining % ≤ 80%); GSPT1 substrate protein remaining % (GSPT1; [11]): A (0% ≤ substrate protein remaining % ≤ 80%)
3 | O=C1CCC(N2Cc3cc(CN4CC=C(c5cccs5)CC4)ccc3C2=S)C(=O)N1 (stereo not drawn) [GT-08171, 3-(5-((4-(thiophen-2-yl)-3,6-dihydropyridin-1(2H)-yl)methyl)-1-thioxoisoindolin-2-yl)piperidine-2,6-dione] | A (0% ≤ substrate protein remaining % ≤ 80%) | A (0% ≤ substrate protein remaining % ≤ 80%) | A (0% ≤ substrate protein remaining % ≤ 80%) | 60 to 80 | 80 to 100 | 50 to 60 | 80 to 100 | 20 to 30 | 80 to 100 | 80 to 100 | 80 to 100 | 60 to 80 | 80 to 100 | 70 to 80 | 70 to 80 | 80 to 100 | 30 to 40 | 80 to 100 | 40 to 50 | 80 to 100 | IKZF3 substrate protein remaining % (IKZF3; [10]): A (0% ≤ substrate protein remaining % ≤ 80%); Wee1 substrate protein remaining % (WEE1; [10]): A (0% ≤ substrate protein remaining % ≤ 80%); GSPT1 substrate protein remaining % (GSPT1; [10]): A (0% ≤ substrate protein remaining % ≤ 80%); inhibition at 0.01 µM [6]: 20 to 30%
4 | O=C1CCC(N2Cc3cc(CN4CC=C(c5cccc(F)c5Cl)CC4)ccc3C2=S)C(=O)N1 (stereo not drawn) [GT-08206, 3-(5-((4-(2-chloro-3-fluorophenyl)-3,6-dihydropyridin-1(2H)-yl)methyl)-1-thioxoisoindolin-2-yl)piperidine-2,6-dione] |  |  |  | 40 to 53 | 80 to 100 | 50 to 60 | 80 to 100 | 80 to 100 | 80 to 100 | 70 to 80 | 80 to 100 | 80 to 100 | 80 to 100 | 80 to 100 | 80 to 100 | 80 to 100 | 60 to 70 | 80 to 100 | 50 to 60 | 80 to 100 | CK1α substrate protein remaining % (CK1α; [11]): A (0% ≤ substrate protein remaining % ≤ 80%); IKZF 1 substrate protein remaining % (IKZF1; [11]): A (0% ≤ substrate protein remaining % ≤ 80%); IKZF2 substrate protein remaining % (IKZF2; [11]): A (0% ≤ substrate protein remaining % ≤ 80%); IKZF3 substrate protein remaining % (IKZF3; [11]): A (0% ≤ substrate protein remaining % ≤ 80%); Wee1 substrate protein remaining % (WEE1; [11]): A (0% ≤ substrate protein remaining % ≤ 80%); GSPT1 substrate protein remaining % (GSPT1; [11]): A (0% ≤ substrate protein remaining % ≤ 80%); inhibition at 0.01 µM [6]: 0 to 5%
5 | O=C1CCC(N2Cc3cc(CN4CC=C(c5ccsc5)CC4)ccc3C2=S)C(=O)N1 (stereo not drawn) [GT-08172, 3-(5-((4-(thiophen-3-yl)-3,6-dihydropyridin-1(2H)-yl)methyl)-1-thioxoisoindolin-2-yl)piperidine-2,6-dione] | A (0% ≤ substrate protein remaining % ≤ 80%) | A (0% ≤ substrate protein remaining % ≤ 80%) | A (0% ≤ substrate protein remaining % ≤ 80%) | 80 to 100 | 80 to 100 | 40 to 50 |  | 20 to 30 | 80 to 100 | 60 to 70 | 80 to 100 | 60 to 80 | 80 to 100 | 70 to 80 | 60 to 70 | 80 to 100 | 20 to 30 | 80 to 100 | 50 to 60 | 80 to 100 | IKZF3 substrate protein remaining % (IKZF3; [10]): A (0% ≤ substrate protein remaining % ≤ 80%); Wee1 substrate protein remaining % (WEE1; [10]): A (0% ≤ substrate protein remaining % ≤ 80%); GSPT1 substrate protein remaining % (GSPT1; [10]): A (0% ≤ substrate protein remaining % ≤ 80%); Inhibition Rate at 500 nM (%) ([2]; MM.1S, 500 nM, 96 hours): la10; inhibition at 0.01 µM [6]: 50 to 60%
6 | Cc1cc(C2CCN(Cc3ccc4c(c3)CN(C3CCC(=O)NC3=O)C4=S)CC2)cs1 (stereo not drawn) [GT-08325, 3-(5-((4-(5-methylthiophen-3-yl)piperidin-1-yl)methyl)-1-thioxoisoindolin-2-yl)piperidine-2,6-dione] | A (0% ≤ substrate protein remaining % ≤ 80%) | B (80%< substrate protein remaining %≤ 100%) | B (80%< substrate protein remaining %≤ 100%) | 60 to 80 | 80 to 100 | 30 to 40 | 80 to 100 | 20 to 30 | 60 to 70 | 10 to 20 | 80 to 100 | 60 to 80 | 100 to 110 |  | 10 to 20 | 80 to 100 | 0 to 5 | 80 to 100 | -5 to 0 | 70 to 80 | IKZF3 substrate protein remaining % (IKZF3; [10]): B (80%< substrate protein remaining %≤ 100%); Wee1 substrate protein remaining % (WEE1; [10]): A (0% ≤ substrate protein remaining % ≤ 80%); GSPT1 substrate protein remaining % (GSPT1; [10]): A (0% ≤ substrate protein remaining % ≤ 80%)
